Here are results for seven compounds from patent US20190359645A1, “2'3'-CYCLIC DINUCLEOTIDES COMPRISING CARBOCYCLIC NUCLEOTIDE” (Institute of Organic Chemistry and Biochemistry ASCR, V.V.I., priority 2018, published 2019).

Molecules are shown by their SMILES.

This test concerns the target WT STING (Homo sapiens, UniProt Q86WV6, H232R). As to the kind of experiment: Differential scanning fluorimetry (DSF) with WT STING. Format: binding. Set-up: truncated human WT STING or AQ STING (amino acid residues 140-343); 8xHis (N, cleaved yes); SUMO (N, cleaved yes); made in house; host or cells: E. coli Rosetta-gami B (DE3). As to conditions: thermal shift, truncated human WT STING 0.1 mg/ml, 150 μM CDN; read-out: DSF ΔTm WT STING. The source says: Both WT and AQ human STING (G230A-R^293Q) cDNA were amplified by the use of PCR (Phusion® High-Fidelity DNA Polymerase, cat. # M0530S, NEB, Ipswich, USA) using oligonucleotides hSTING140-BamH-For ([…]) (SEQ ID NO:5) and hSTING379-Not-Rev3 ([…]) (SEQ ID NO:6) from pUNOI-hSTING-WT (cat. # punol-hstingwt, InvivoGen, San Diego, USA) and pUNO1-hSTING-HAQ plasmids (punol-hsting-haq, InvivoGen, San Diego, USA). Purified PCR products were cleaved with restriction enzymes BamHI (cat. # R^0136S, NEB, Ipswich, USA) and NotI (cat. # R^0189S, NEB, Ipswich, USA) and cloned into the pSUMO vector linearized with the identical enzymes. Plasmid pSUMO was created by introducing 8-His-SUMO sequence between NdeI and BamHI sites of pHis-parallel2 plasmid (Clontech, Moutain View, USA). pSUMO-STING WT or pSUMO-STING AQ plasmids thus encoded truncated human WT STING or AQ STING (amino acid residues 140-343) with N-terminal 8×His and SUMO tag.
The recombinant WT STING and AQ STING proteins were overexpressed in Rosetta-gami B (DE3) competent cells (cat. #71136-3, Merck Millipore, Billerica, USA). Bacterial pellets were re-suspended in ice-cold lysis buffer containing 50 mmol·l^−1 TrisCl (cat. # T1503, Sigma Aldrich, Czech Republic) pH 8.0, 300 mmol·l^−1 NaCl, 3 mmol·l^−1 (3-mercaptoethanol (cat. # M6250, Sigma Aldrich, Czech Republic), 10% glycerol (cat. #G5516, Sigma Aldrich, Czech Republic) and 20 mmol·l^−1 imidazole (cat. #15513, Sigma Aldrich, Czech Republic) using Dounce homogenizer. DNase I (cat. # D5025, Sigma Aldrich, Czech Republic) and RNase A (cat. # R^6513, Sigma Aldrich, Czech Republic) were added (final concentration 50 μg/ml) together with MgCl2 (final concentration 5 mmol·l^−1) to the homogenate and bacteria were lysed using French Press G-M™ High-Pressure Cell Press Homogenizer (1500 psi, 3 cycles). Lysate was spun 30,000 g for 20 minutes and supernatant was gently stirred with Ni-NTA resin (cat. #745400.25 Macherey-Nagel, Duren, Germany) for 30 minutes. The resin was poured into a chromatography column, washed with 50 ml buffer A (50 mmol·l^−1 TrisCl (pH 8.0), 800 mmol·l^−1 NaCl, 3 mmol·l^−1β-mercaptoethanol; 10% glycerol; 20 mmol·l^−1 imidazole) and 8-His-SUMO tagged STING proteins were eluted with 15 ml buffer A containing 300 mmol·l^−1 imidazole. The eluted proteins were cleaved with recombinant SUMO protease (80 pig/ml of protein solution, cat. #12588018, ThermoFisher, Waltham, USA). The proteins were further purified by size exclusion chromatography using HiLoad 16/60 Superdex 75 (cat. #28989333, GE Healthcare Bio-Sciences, Pittsburgh, USA) in 50 mmol·l^−1 Tris C1 buffer pH 7.4 containing 150 mmol·l^−1 NaCl, and 10% glycerol. Proteins were concentrated with Amicon® Ultra-15 10 K device (cat. # UFC901008, Merck Millipore, Billerica, USA) and flash frozen in liquid N2.
WT and AQ allelic forms of STING protein were diluted to the final concentration 0.1 mg/ml in 100 mmol·l^−1 TrisCl buffer pH 7.4 containing, 150 mmol·l^−1 NaCl, 1:500 SYPRO Orange (cat. # S6650, ThermoFisher, Waltham, USA) and 150 μM CDN or water. 20 μL solutions of the reaction mixtures were pipetted in triplicates into 96 well optical reaction plates and thermal denaturation of samples were performed on real time PCR cycler (LightCycler® 480 Instrument II—Roche, Basel, Switzerland). The first derivative of the thermal denaturation curves was performed to calculate denaturing temperatures of STING-CDN complexes and STING apoproteins. The thermal shift for each CDN was calculated by subtracting the average denaturing temperature of STING apoprotein from the average denaturing temperature of STING CDN complex.

Sequence of WT STING (Q86WV6 140-343 H232R): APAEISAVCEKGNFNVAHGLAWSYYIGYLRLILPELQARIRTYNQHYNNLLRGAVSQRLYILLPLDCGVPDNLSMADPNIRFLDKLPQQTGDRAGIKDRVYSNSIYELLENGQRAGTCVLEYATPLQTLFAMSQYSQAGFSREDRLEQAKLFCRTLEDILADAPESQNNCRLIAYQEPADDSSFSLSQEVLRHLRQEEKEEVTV

In the case of `Cc1cn([C@@H]2O[C@@H]3COP(=O)(O)OC4C(O)[C@@H](COP(=O)(O)OC3C2O)C[C@H]4n2cnc3c(=O)[nH]c(N)nc32)c2ncnc(N)c12` (stereo partly drawn) [Compound 113, (6R,8R,15R,17R)-8-{4-amino-5-methyl-7H-pyrrolo[2,3-d]pyrimidin-7-yl}-17-(2-amino-6-oxo-6,9-dihydro-1H-purin-9-yl)-3,9,12,18-tetrahydroxy-2,4,7,11,13-pentaoxa-3λ^5,12λ^5-diphosphatricyclo[13.2.1.0^6,10]octadecane-3,12-dione], the shift in melting temperature (ΔTm) at 150 µM amounted to 6 °C. In the case of `Nc1nc2c(ncn2[C@@H]2C[C@@H]3COP(=O)(O)OC4C(F)[C@H](n5cnc6c(N)nc(F)nc65)O[C@@H]4COP(=O)(O)OC2C3O)c(=O)[nH]1` (stereo partly drawn) [Compound 111, (6R,8R,15R,17R)-8-(6-amino-2-fluoro-9H-purin-9-yl)-17-(2-amino-6-oxo-6,9-dihydro-1H-purin-9-yl)-9-fluoro-3,12,18-trihydroxy-2,4,7,11,13-pentaoxa-3λ^5,12λ^5-diphosphatricyclo[13.2.1.0^6,10]octadecane-3,12-dione], the ΔTm at 150 µM amounted to 5.1 °C. For `Nc1ncnc2c1ncn2[C@@H]1O[C@@H]2COP(=O)(O)OC3C(O)[C@@H](COP(=O)(O)OC2C1O)C[C@H]3n1cnc2c(=O)[nH]cnc21` (stereo partly drawn) [Compound 120, (6R,8R,15R,17R)-8-(6-amino-9H-purin-9-yl)-3,9,12,18-tetrahydroxy-17-(6-oxo-6,9-dihydro-1H-purin-9-yl)-2,4,7,11,13-pentaoxa-3λ^5,12λ^5-diphosphatricyclo[13.2.1.0^6,10]octadecane-3,12-dione] the value was 10.6 °C; for `Nc1nc2c(ncn2[C@@H]2C[C@@H]3COP(=O)(O)OC4C(O)[C@H](n5cnc6c(S)ncnc65)O[C@@H]4COP(=O)(O)OC2C3O)c(=O)[nH]1` (stereo partly drawn) [Compound 107, (6R,8R,15R,17R)-17-(2-amino-6-oxo-6,9-dihydro-1H-purin-9-yl)-3,9,12,18-tetrahydroxy-8-(6-sulfanyl-9H-purin-9-yl)-2,4,7,11,13-pentaoxa-3λ^5,12λ^5-diphosphatricyclo[13.2.1.0^6,10]octadecane-3,12-dione], 2.2 °C. The same measure for `Nc1nc2c(ncn2[C@@H]2C[C@@H]3COP(=O)(O)OC4C(O)[C@H](n5nnc6c(N)ncnc65)O[C@@H]4COP(=O)(O)OC2C3O)c(=O)[nH]1` (stereo partly drawn) [Compound 116, (6R,8R,15R,17R)-8-{7-amino-3H-[1,2,3]triazolo[4,5-d]pyrimidin-3-yl}-17-(2-amino-6-oxo-6,9-dihydro-1H-purin-9-yl)-3,9,12,18-tetrahydroxy-2,4,7,11,13-pentaoxa-3λ^5,12λ^5-diphosphatricyclo[13.2.1.0^6,10]octadecane-3,12-dione]: 0.9 °C. For `Nc1ncnc2c1ncn2[C@@H]1O[C@@H]2COP(=O)(O)O[C@@H]3[C@@H](F)[C@@H](COP(=O)(O)O[C@H]2[C@H]1O)C[C@H]3n1cnc2c(=O)[nH]cnc21` [Compound 126, (1S,6R,8R,9R,10S,15R,17R,18S)-8-(6-amino-9H-purin-9-yl)-18-fluoro-3,9,12-trihydroxy-17-(6-oxo-6,9-dihydro-1H-purin-9-yl)-2,4,7,11,13-pentaoxa-3λ^5,12λ^5-diphosphatricyclo[13.2.1.0^6,10]octadecane-3,12-dione] the value was 8.4 °C. Take `Nc1nc(N)c2ncn([C@@H]3O[C@@H]4COP(=O)(O)OC5C(O)[C@@H](COP(=O)(O)OC4C3F)C[C@H]5n3cnc4c(=O)[nH]c(N)nc43)c2n1` (stereo partly drawn) [Compound 117, (6R,8R,15R,17R)-17-(2-amino-6-oxo-6,9-dihydro-1H-purin-9-yl)-8-(2,6-diamino-9H-purin-9-yl)-9-fluoro-3,12,18-trihydroxy-2,4,7,11,13-pentaoxa-3λ^5,12λ^5-diphosphatricyclo[13.2.1.0^6,10]octadecane-3,12-dione]: the ΔTm at 150 µM stood at 9.4 °C.
